We go through three compounds from US20210301038A1, “POLYSIALIC ACID AND DERIVATIVES THEREOF, PHARMACEUTICAL COMPOSITION AND METHOD OF PRODUCING POLYSIALIC ACID” (Medizinische Hochschule Hannover (MHH), priority 2018, published 2021).

Each structure is given as a SMILES string. Where a name gives a salt, the structure may show the parent alone.

In assay [1] the test system is layer II/III - layer V synapses in mPFC slices. The assay is described as follows: TBS-induced LTP (fEPSP) in sham- and endoNF-treated mPFC slices from C57BL/6 mice. It counts as cell-based, mouse. The following applies: endoNF-treated slices; Ro 25-6981 0.3 μM; DP12 1 μg/ml; DP5 1 or 10 μg/ml; sarcosine 0.75 mM; SSR 504734 3 μM. The procedure: (§1) For endoNF treatment in C57BL/6J mice, slices were first allowed to recover for 20 min at room temperature (22-24° C.) in recording aCSF and were then placed in a 24-well plate to be incubated in 2 ml of aCSF without (sham) or with addition of endoNF (10 μg/ml) at 35° C. for 2 hours. The 24-well plate was installed in a water bath (ED, Julabo, Seelbach, Germany). For field excitatory postsynaptic potential (fEPSP) recordings in knockout and transgenic mice, mPFC slices were incubated in recording aCSF for >2 hours at room temperature before recordings. For patch-clamp recordings in knockout mice, slices were incubated first at 35° C. for 20 min and then at room temperature for >30 min before recordings started. The aCSF was continuously gassed with 95% O2/5% CO2 during all incubation steps and recordings.
(§2) Prefrontal slices (400 μm) were transferred to a submerged-type recording MC membrane chamber (volume 2 ml; Scientific Systems Design Inc., Mississauga, Ontario, Canada) perfused with oxygenated recording ACSF at a flow rate of 4 ml/min and maintained at room temperature (22-25° C.), unless stated otherwise in the “Results”-section given below. Field EPSPs were evoked and recorded using thin-walled glass electrodes (borosilicate glass, wall thickness 0.188, length 100, and outer diameter 1.5 mm, Hilgenberg, Malsfeld, Germany) filled with recording aCSF in 400 μm-thick mPFC slices. In order to stimulate electrically the input fibers of pyramidal cells, the stimulation electrode (0.3-0.5 MΩ) was inserted into layers II/III of the prelimbic cortex. The recording electrode (2-2.5 MΩ) was placed in the vicinity of dendrites and cell bodies of pyramidal neurons in layer V (Huang et al., 2004).
(§3) Before LTP induction, basal synaptic transmission was recorded in each slice and the relationship between stimulus intensity and fEPSP slope was measured. Basal fEPSPs were evoked at 0.05 Hz for at least 10 min. The supramaximal slope was determined by gradually increasing the stimulation intensity until a population spike in the fEPSP became first visible. The stimulation intensity was adjusted to elicit a basal fEPSP with a slope of approximately 50% of the supramaximal value.
(§4) LTP was induced by application of five trains of theta-burst stimulation (TBS) with an inter-theta-train interval of 20 s (Brennaman et al., 2011). Each train consisted of 8 bursts delivered at 5 Hz. Each burst consisted of four pulses delivered at 100 Hz. Duration of pulses was 0.2 ms. For calculation of the LTP level, the mean fEPSP slope was measured between 50-60 min after TBS delivery, and it was then normalized to mean baseline fEPSP slope during 0-10 min before TBS. Stimulus artifacts in representative fEPSP examples in figures were blanked to facilitate the perception of fEPSPs recorded in the mPFC. Recording and analysis of LTP in St8Sia4^−/− mice was performed in a blind manner.
The enzyme endosialidase NF (endoNF) (Stummeyer et al., 2005) and the short form of polysialic acid composed of 10 or twelve sialic acid residues (DP10 and DP12) were purified as described previously (Keys et al., 2014). Sialic acid (N-acetylneuraminic acid, DP1) and the pentamer of sialic acid sodium salt (DP5) were obtained from EY Laboratories (San Mateo, Calif., USA). DMB-labelled DP2 and DP12, and non-labelled avDP10-9OAc were synthesized in the laboratory of Rita Gerardy-Schahn (see sections Synthesis of DMB-DP2 and DMB-DP12 and Synthesis of avDP10-9OAc, respectively). […]

The subject of assay [2] is mPFC slices from St8sia4−/− mice. The assay is described as follows: TBS-induced LTP in mPFC slices from ST8SIA4-deficient mice and wild-type littermates. It is filed as cell-based, mouse. The following applies: Ro 25-6981 0.3 μM, DP12 1 μg/ml, sarcosine 0.75 mM. The procedure: as §1, §2, §3, §4
In assay [3] the test system is C57BL/6J mice with intra-mPFC endoNF injection. The assay is described as follows: Novel object recognition test before and after intra-mPFC endoNF injection. It counts as in vivo, mouse. How it is done: Guide cannulas were fabricated using stainless steel tubing with outer/inner diameter Ø 0.711/0.483 mm (Science Products, Germany). Dummy cannulas were made from entomological pins, size 2, Ø 0.41 mm (FST, Germany). Chronic implantation of cannulas into the mPFC in mice was performed as described previously for intrahippocampal injections (Kochlamazashvili et al., 2012; Senkov et al., 2015; Senkov et al., 2006).
Acute injection of endoNF in vivo was done under a short isoflurane anesthesia. For intra-mPFC injection, we used a digitally controlled infusion system (UltraMicroPump, UMP3, and Micro4 Controller, WPI, USA) fed with a 10 μl-Hamilton syringe and NanoFil 135 μm (35 GA) beveled needle. The thin (135 μm) part of the needle went into the mouse brain during injection, whereas its thick part (430 μm) fit perfectly in the guide cannula (inside 483 μm). Injections were performed as follows: 1) a mouse was anesthetized with 1-3% isoflurane as during implantation; 2) it was put into the stereotaxic frame; 3) the dummy cannula was gently removed from the left guide cannula; 4) a NanoFil injecting needle was carefully placed inside of the guide cannula and advanced further down until reaching the marker (made with a permanent pen at the needle shank (430 μm) to visualize the point when the needle should reach the surface of the brain coming out of the guide cannula (equal to the length of guide cannula); 5) once the marker was reached, a slow (10 μm increment) step dial was used to deepen the needle into the brain; 6) endoNF (2 μg/μl) or vehicle was injected with the following settings: 250 nl per site as deep as 1.5 and 2.25 mm from the brain surface (total injection volume per hemisphere 500 nl, injection rate of 3 nl/s); 7) after injection was complete (˜5 min), the needle was left in the injection site for another 5 min and then gently removed; 8) the dummy cannula was then put back to its place; 9) the same procedure was performed for the right hemisphere. The whole injection process took approximately 20-25 min under isoflurane anesthesia, and the mice recovered rather quickly, starting to move in approximately 2-3 min after being returned to their home cages. Complete recovery of a mouse after such short anesthesia usually occurs within 3-5 min. After injection, mice were returned to their animal facility. Behavior experiments started on the day after injection at approximately the same time, so that we could perform cognitive tests 24 hours after injection.
A white open field arena (50×50×30 cm) was used in the novel object recognition task. All behavior was video recorded and analyzed automatically by software (ANY-maze, version 4.99, Stoelting Co., Wood Dale, Ill.). […]

In assay [4] the test system is NMDAR-EPSCs (GluN1/GluN2B receptors). The assay is described as follows: Evoked NMDAR-EPSCs, whole-cell patch-clamp of layer V pyramidal neurons in sham- or endoNF-treated mPFC slices. It counts as cell-based, mouse. The following applies: 0.1 μM, in the presence of 5-HT4 antagonist RS 39604 (10 μM).
Text: Each mouse was quickly sacrificed by cervical dislocation. After decapitation, the brain was rapidly removed from the skull and placed in ice-cold artificial cerebrospinal fluid (aCSF) equilibrated with 95% O2/5% CO2, which was composed of the following (in mM): 250 sucrose, 24 NaHCO3, 25 glucose, 2.5 KCl, 1.25 NaH2PO4, 2 CaCl2, and 1.5 MgCl2 (osmolarity 345-350 mOsm/kg, pH 7.4). Using a VT1200S vibratome (Leica, Nussloch, Germany), coronal slices containing the prelimbic and infralimbic cortices (1.9-1.3 mm anterior to bregma) were cut 350 μm or 400 μm thick, for patch clamp and extracellular recordings, respectively, in the same sucrose-containing aCSF. Then, the slices were transferred to a slice holding chamber filled with recording aCSF (osmolarity 300-305 mOsm/kg, pH 7.4) that contained 120 mM NaCl instead of sucrose (Eckhardt et al., 2000) and was continuously gassed with 95% O2/5% CO2.
as §1
For whole-cell patch-clamp recordings, layer V pyramidal neurons were visualized using a SliceScope Pro 6000 equipped with a 40× water-immersion objective and infrared differential interference contrast microscopy (Scientifica, Uckfield, UK). Pyramidal cells were identified by their triangular soma and long apical dendrites, and synaptically evoked excitatory postsynaptic currents (EPSCs) were recorded using patch pipettes (3-5 MQ) fabricated using borosilicate glass capillaries (wall thickness 0.315, length 100, outer diameter 1.5 mm, Hilgenberg) and a DMZ-Zeitz puller (Zeitz Instruments GmbH, Martinsried, Germany). The intracellular pipette solution contained the following (in mM): 140.7 Cs-methane-sulfonate, 5 NaCl, 1 MgCl2, 0.2 EGTA, 10 HEPES, 3 ATP-Mg, 0.3 Na-GTP, and 3.1 QX-314 (osmolarity 295 mOsm/kg, adjusted to pH 7.2 with CsOH). EPSCs were evoked by electrical pulses (0.2 ms) at 0.033 Hz via a glass pipette placed in layer II/III of the mPFC (identically to fEPSPs). Mixed EPSCs showing a fast AMPAR-mediated component and a slow NMDAR-mediated component were recorded at a −60 mV holding potential in whole-cell voltage-clamp mode in normal aCSF. The stimulation intensity was adjusted to evoke mixed EPSCs with amplitudes of approximately 300 pA. The slow NMDAR-mediated component of EPSCs was pharmacologically isolated at −60 mV in modified aCSF containing low Mg^2+ (0.1 mM) and high Ca^2+ (3.2 mM, for adjustment of divalent cation concentrations), the selective antagonist of α-amino-3-hydroxy-5-methyl-4-isoxazolepropionic acid (AMPA)/kainate receptors NBQX (10 μM), and the selective antagonist of γ-aminobutyric acid (GABA)B receptors CGP-55845 (2 μM) (Chen et al., 2003). The washout of Mg^2+ required at least 25 min. Recordings at a holding potential near the resting membrane potential allowed us to obtain stable NMDAR-EPSC recordings from pyramidal cells lasting for 1-1.5 hours. Series resistance (Rs, range 10-25 MΩ) was compensated (20-30%) and monitored continuously. Neurons in which Rs changed by more than 20% throughout the experiment were not included in the analysis. In voltage-clamp mode, membrane potential was not corrected for liquid junction potential. […]

As to `O=C(N[C@@H](c1ccccc1)[C@@H]1CCCCN1)c1cccc(C(F)(F)F)c1Cl` [SSR 504734, 2-chloro-N—[(S)-phenyl[(2S)-piperidin-2-yl]methyl]-3-trifluoromethyl benzamide], in assay [1], the “LTP level 50-60 min after TBS” value is on record as “rescued LTP”.
On to `CNCC(=O)O` [sarcosine, N-methylglycine], for which the LTP magnitude entry in assay [2] (St8sia4+/+ mice) is on record as “no effect”. Also, the “LTP level 50-60 min after TBS” value in assay [2] (St8sia4−/− mice) was “full restoration of LTP levels”; in assay [1], “fully restored to sham levels”. In assay [3] (30 min before encoding, sarcosine 600 mg/kg i.p. (d2), DP12 (d5) and DP1 (d6) 1 mg/kg intranasally), the “novel object recognition after intra-mPFC endoNF injection” value is listed as “fully alleviated”. For the same compound, the “novel object recognition before endoNF injection” value in assay [3] (d-1, 600 mg/kg i.p. 30 min before the encoding phase) is on record as “normal object recognition”.
Regarding `[H]/N=C(/NCCCCC)N/N=C/c1c[nH]c2ccc(OC)cc12` [tegaserod, tegaserod maleate], the “inhibition of NMDAR-EPSC amplitude” value in assay [4] (endoNF-treated slices) is approximately 30%; in assay [4] (sham-treated slices), approximately 50%.
